Calls of active or inactive are those of the source. The rule behind the calls is not given here.
What was measured:
[1] = target: T1, von Hippel-Lindau disease tumor suppressor/Phosphatidylinositol 4,5-bisphosphate 3-kinase catalytic subunit alpha isoform (Homo sapiens, UniProt P42336+P40337); assay: PROTAC activity at PI3K-p110alpha/VHL in human A549/DDP cells assessed as induction of PI3K-p110alpha degradation incubated for 24 hrs by Western blot analysis; format: cell-based; conditions: for Activity: dose 0.04-50 µM
[2] = target: T1, von Hippel-Lindau disease tumor suppressor/Phosphatidylinositol 4,5-bisphosphate 3-kinase catalytic subunit alpha isoform; assay: PROTAC activity at PI3K-p110alpha/VHL in human A549/DDP cells assessed as induction of PI3K-p110alpha degradation at 0.04 to 50 uM by Western blot analysis; format: cell-based; conditions: dose 0.04-50 µM, time 24.0 hrs
Target sequence in this assay (P40337 whole entry, looked up, canonical isoform): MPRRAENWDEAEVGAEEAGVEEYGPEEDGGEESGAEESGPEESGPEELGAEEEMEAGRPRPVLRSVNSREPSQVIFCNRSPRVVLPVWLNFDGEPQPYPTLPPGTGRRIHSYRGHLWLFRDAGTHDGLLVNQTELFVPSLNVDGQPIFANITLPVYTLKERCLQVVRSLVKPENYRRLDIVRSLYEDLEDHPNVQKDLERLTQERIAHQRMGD
Target sequence in this assay (P42336 whole entry, looked up, canonical isoform): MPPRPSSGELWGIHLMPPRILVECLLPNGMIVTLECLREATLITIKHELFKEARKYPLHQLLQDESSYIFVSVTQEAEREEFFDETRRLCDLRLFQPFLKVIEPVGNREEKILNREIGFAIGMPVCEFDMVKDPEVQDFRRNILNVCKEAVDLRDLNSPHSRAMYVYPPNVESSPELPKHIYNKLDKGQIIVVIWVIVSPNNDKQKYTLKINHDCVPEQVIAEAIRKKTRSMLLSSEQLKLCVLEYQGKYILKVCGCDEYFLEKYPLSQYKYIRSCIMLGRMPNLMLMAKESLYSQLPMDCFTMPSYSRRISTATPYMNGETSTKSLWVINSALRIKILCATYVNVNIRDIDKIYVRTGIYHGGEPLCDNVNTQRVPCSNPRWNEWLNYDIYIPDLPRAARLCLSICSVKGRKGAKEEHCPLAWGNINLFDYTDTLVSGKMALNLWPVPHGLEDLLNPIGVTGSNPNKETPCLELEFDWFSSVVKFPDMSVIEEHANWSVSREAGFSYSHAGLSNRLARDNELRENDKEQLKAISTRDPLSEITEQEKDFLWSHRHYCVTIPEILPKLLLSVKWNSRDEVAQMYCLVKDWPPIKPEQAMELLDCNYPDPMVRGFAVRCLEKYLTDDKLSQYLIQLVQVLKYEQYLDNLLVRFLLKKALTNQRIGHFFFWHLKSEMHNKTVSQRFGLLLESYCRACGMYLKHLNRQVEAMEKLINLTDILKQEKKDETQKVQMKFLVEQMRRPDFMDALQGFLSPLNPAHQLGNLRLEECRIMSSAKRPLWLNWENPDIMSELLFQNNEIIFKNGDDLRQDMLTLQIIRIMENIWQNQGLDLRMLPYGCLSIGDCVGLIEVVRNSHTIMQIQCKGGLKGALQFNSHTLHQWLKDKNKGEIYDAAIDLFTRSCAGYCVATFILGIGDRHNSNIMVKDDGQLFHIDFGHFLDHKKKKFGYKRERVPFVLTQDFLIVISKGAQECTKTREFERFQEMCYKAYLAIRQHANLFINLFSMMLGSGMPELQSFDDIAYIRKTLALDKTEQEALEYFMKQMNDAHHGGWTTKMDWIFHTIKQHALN

[3] = target: T2, von Hippel-Lindau disease tumor suppressor/Phosphatidylinositol 4,5-bisphosphate 3-kinase catalytic subunit beta isoform (Homo sapiens, UniProt P42338+P40337); assay: PROTAC activity at PI3K-p110beta/VHL in human A549/DDP cells assessed as reduction in PI3K-p110beta level incubated for 24 hrs by Western blot analysis; format: cell-based
[4] = target: T2, von Hippel-Lindau disease tumor suppressor/Phosphatidylinositol 4,5-bisphosphate 3-kinase catalytic subunit beta isoform; assay: PROTAC activity at PI3K-p110beta/VHL in human MCF7/ADM cells assessed as reduction in PI3K-p110beta level incubated for 2 hrs by Western blot analysis; format: cell-based
Target sequence in this assay (P40337 whole entry, looked up, canonical isoform): as the sequence (P40337 whole entry, looked up, canonical isoform) above
Target sequence in this assay (P42338 whole entry, looked up, canonical isoform): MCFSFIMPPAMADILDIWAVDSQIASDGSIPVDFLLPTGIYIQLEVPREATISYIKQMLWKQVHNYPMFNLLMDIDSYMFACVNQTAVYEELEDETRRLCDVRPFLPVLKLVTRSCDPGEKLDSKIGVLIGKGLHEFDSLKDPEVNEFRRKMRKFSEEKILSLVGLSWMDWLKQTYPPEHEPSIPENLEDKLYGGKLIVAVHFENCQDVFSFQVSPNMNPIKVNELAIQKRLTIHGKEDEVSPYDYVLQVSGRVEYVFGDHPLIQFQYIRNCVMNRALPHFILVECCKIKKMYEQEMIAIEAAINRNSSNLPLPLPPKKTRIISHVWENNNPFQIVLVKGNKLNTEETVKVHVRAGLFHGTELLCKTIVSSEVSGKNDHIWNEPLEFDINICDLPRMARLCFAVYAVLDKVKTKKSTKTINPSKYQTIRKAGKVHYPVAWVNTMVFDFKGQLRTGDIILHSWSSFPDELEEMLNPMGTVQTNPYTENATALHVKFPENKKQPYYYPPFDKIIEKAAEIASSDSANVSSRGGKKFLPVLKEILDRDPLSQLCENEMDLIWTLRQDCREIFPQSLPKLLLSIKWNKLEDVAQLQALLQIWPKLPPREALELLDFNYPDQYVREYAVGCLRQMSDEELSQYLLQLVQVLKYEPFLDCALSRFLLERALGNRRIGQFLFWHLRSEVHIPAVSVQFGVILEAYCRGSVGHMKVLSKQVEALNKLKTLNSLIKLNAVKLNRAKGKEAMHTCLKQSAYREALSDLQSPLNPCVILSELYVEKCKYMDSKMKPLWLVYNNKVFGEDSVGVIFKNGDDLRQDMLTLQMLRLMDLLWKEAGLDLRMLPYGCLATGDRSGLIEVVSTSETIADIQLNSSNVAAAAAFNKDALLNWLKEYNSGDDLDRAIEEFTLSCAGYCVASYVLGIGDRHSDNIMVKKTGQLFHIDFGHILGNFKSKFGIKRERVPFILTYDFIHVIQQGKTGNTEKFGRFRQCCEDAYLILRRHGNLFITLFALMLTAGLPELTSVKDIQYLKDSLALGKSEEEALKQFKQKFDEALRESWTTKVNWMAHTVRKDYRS

[5] = target: T2, von Hippel-Lindau disease tumor suppressor/Phosphatidylinositol 4,5-bisphosphate 3-kinase catalytic subunit beta isoform; assay: PROTAC activity at PI3K-p110beta/VHL in human A549/DDP cells assessed as reduction in PI3K-p110beta level incubated for 2 hrs by Western blot analysis; format: cell-based
Target sequence in this assay (P40337 whole entry, looked up, canonical isoform): as the sequence (P40337 whole entry, looked up, canonical isoform) above
Target sequence in this assay (P42338 whole entry, looked up, canonical isoform): as the sequence (P42338 whole entry, looked up, canonical isoform) above

[6] = target: T2, von Hippel-Lindau disease tumor suppressor/Phosphatidylinositol 4,5-bisphosphate 3-kinase catalytic subunit beta isoform; assay: PROTAC activity at PI3K-p110beta/VHL in human MCF7/ADM cells assessed as reduction in PI3K-p110beta level incubated for 12 to 36 hrs by Western blot analysis; format: cell-based; conditions: time 12-36 hrs
Target sequence in this assay (P40337 whole entry, looked up, canonical isoform): as the sequence (P40337 whole entry, looked up, canonical isoform) above
Target sequence in this assay (P42338 whole entry, looked up, canonical isoform): as the sequence (P42338 whole entry, looked up, canonical isoform) above

[7] = target: T2, von Hippel-Lindau disease tumor suppressor/Phosphatidylinositol 4,5-bisphosphate 3-kinase catalytic subunit beta isoform; assay: PROTAC activity at PI3K-p110beta/VHL in human MCF7/ADM cells assessed as reduction in PI3K-p110beta level by Western blot analysis; format: cell-based; conditions: time <= 48.0 hrs
Target sequence in this assay (P40337 whole entry, looked up, canonical isoform): as the sequence (P40337 whole entry, looked up, canonical isoform) above
Target sequence in this assay (P42338 whole entry, looked up, canonical isoform): as the sequence (P42338 whole entry, looked up, canonical isoform) above

[8] = target: T2, von Hippel-Lindau disease tumor suppressor/Phosphatidylinositol 4,5-bisphosphate 3-kinase catalytic subunit beta isoform; assay: PROTAC activity at PI3K-p110beta/VHL in human MCF7/ADM cells assessed as induction of PI3K-p110beta degradation at 25 uM measured for 24 hrs in presence of VHL ligand by Western blot analysis; format: cell-based
Target sequence in this assay (P40337 whole entry, looked up, canonical isoform): as the sequence (P40337 whole entry, looked up, canonical isoform) above
Target sequence in this assay (P42338 whole entry, looked up, canonical isoform): as the sequence (P42338 whole entry, looked up, canonical isoform) above

[9] = target: T2, von Hippel-Lindau disease tumor suppressor/Phosphatidylinositol 4,5-bisphosphate 3-kinase catalytic subunit beta isoform; assay: PROTAC activity at PI3K-p110beta/VHL in human MCF7/ADM cells assessed as induction of PI3K-p110beta degradation at 25 uM measured for 24 hrs in presence of TGX221 by Western blot analysis; format: cell-based
Target sequence in this assay (P40337 whole entry, looked up, canonical isoform): as the sequence (P40337 whole entry, looked up, canonical isoform) above
Target sequence in this assay (P42338 whole entry, looked up, canonical isoform): as the sequence (P42338 whole entry, looked up, canonical isoform) above

A549/CDDP [10] = assay: Induction of apoptosis in human A549/DDP cells assessed as increase in caspase-3 expression at 12.5 uM incubated for 24 hrs by Western blot analysis; format: functional, cell-based
A549/CDDP [11] = assay: Induction of apoptosis in human A549/DDP cells assessed as increase in cleaved caspase-9 expression at 12.5 uM incubated for 24 hrs by Western blot analysis; format: functional, cell-based
MCF7/ADM [12] = assay: Induction of apoptosis in human MCF7/ADM cells assessed as increase in cleaved caspase-9 expression at 12.5 uM incubated for 24 hrs by Western blot analysis; format: functional, cell-based
MCF7/ADM [13] = assay: Induction of apoptosis in human MCF7/ADM cells assessed as increase in cleaved caspase-3 expression at 12.5 uM incubated for 24 hrs by Western blot analysis; format: functional, cell-based
MCF7/ADM [14] = assay: Induction of apoptosis in human MCF7/ADM cells assessed as increase in cleaved caspase-8 expression at 12.5 uM incubated for 24 hrs by Western blot analysis; format: functional, cell-based
MCF7/ADM [15] = assay: Activation of unfolded protein response in human MCF7/ADM cells at 25 uM incubated for 24 hrs by PROTEOSTATR aggresome dye based fluorescent microscopy; format: functional, cell-based
MCF7/ADM [16] = assay: Upregulation of ATF4 expression in human MCF7/ADM cells at 0.25 to 25 uM incubated for 24 hrs by Western blot analysis; format: functional, cell-based; conditions: dose 0.25-25 µM
MCF7/ADM [17] = assay: Upregulation of CHOP expression in human MCF7/ADM cells at 0.25 to 25 uM incubated for 24 hrs by Western blot analysis; format: functional, cell-based; conditions: dose 0.25-25 µM
A549/CDDP [18] = assay: Upregulation of ATF6 expression in human A549/DDP cells at 0.25 to 25 uM incubated for 24 hrs by Western blot analysis; format: functional, cell-based; conditions: dose 0.25-25 µM
MCF7/ADM [19] = assay: Upregulation of p-IRE1 expression in human MCF7/ADM cells at 0.25 to 25 uM incubated for 24 hrs by Western blot analysis; format: functional, cell-based; conditions: dose 0.25-25 µM
[20] = target: T3, ATP-dependent translocase ABCB1 (Homo sapiens, UniProt P08183); assay: Inhibition of P-gp in human MCF7/ADM cells assessed as increase in intracellular adriamycin accumulation at 6.25 to 25 uM incubated for 24 hrs by flow cytometry analysis; format: cell-based; conditions: dose 6.25-25 µM
[21] = target: T3, ATP-dependent translocase ABCB1; assay: Inhibition of P-gp in human MCF7/ADM cells at 6.25 to 25 uM incubated for 24 hrs; format: cell-based; conditions: dose 6.25-25 µM
A549/CDDP [22] = assay: Downregulation of p-gp level in human A549/DDP cells at 6.25 to 25 uM incubated for 24 hrs; format: functional, cell-based; conditions: dose 6.25-25 µM
MCF7/ADM [23] = assay: Downregulation of p-gp level in human MCF7/ADM cells at 6.25 to 25 uM incubated for 24 hrs; format: functional, cell-based; conditions: dose 6.25-25 µM
MCF7/ADM [24] = assay: Antitumor activity against human MCF7/ADM cells xenografted in BALB/c mouse assessed as reduction in tumor volume at 50 mg/kg, ip measured every 2 days; format: functional, organism-based; conditions: time 2.0 day
MCF7/ADM [25] = assay: Antitumor activity against human MCF7/ADM cells xenografted in BALB/c mouse assessed as downregulation of p110beta level in tumor at 50 mg/kg, ip; format: functional, organism-based
MCF7/ADM [26] = assay: Antitumor activity against human MCF7/ADM cells xenografted in BALB/c mouse assessed as downregulation of p110alpha level in tumor at 50 mg/kg, ip; format: functional, organism-based
MCF7/ADM [27] = assay: Antitumor activity against human MCF7/ADM cells xenografted in BALB/c mouse assessed as increase in GRP78 expression in tumor at 50 mg/kg, ip by Western blot analysis; format: functional, organism-based
MCF7/ADM [28] = assay: Antitumor activity against human MCF7/ADM cells xenografted in BALB/c mouse assessed as increase in bax expression in tumor at 50 mg/kg, ip by Western blot analysis; format: functional, organism-based
MCF7/ADM [29] = assay: Antitumor activity against human MCF7/ADM cells xenografted in BALB/c mouse assessed as effect on PTEN expression in tumor at 50 mg/kg, ip by Western blot analysis; format: functional, organism-based
MCF7/ADM [30] = assay: Antitumor activity against human MCF7/ADM cells xenografted in BALB/c mouse assessed as reduction in p-gp expression in tumor at 50 mg/kg, ip by Western blot analysis; format: functional, organism-based
[31] = Toxicity in BALB/c mouse xenografted with human MCF7/ADM cells assessed as liver damage at 50 mg/kg, ip by H and E staining based analysis; format: organism-based; conditions: in vivo
[32] = Toxicity in BALB/c mouse xenografted with human MCF7/ADM cells assessed as spleen damage at 50 mg/kg, ip by H and E staining based analysis; format: organism-based; conditions: in vivo
[33] = Toxicity in BALB/c mouse xenografted with human MCF7/ADM cells assessed as kidney damage at 50 mg/kg, ip by H and E staining based analysis; format: organism-based; conditions: in vivo
[34] = Toxicity in BALB/c mouse xenografted with human MCF7/ADM cells assessed as change in WBC count at 50 mg/kg, ip; format: organism-based; conditions: in vivo

T3 sequence (P08183 whole entry): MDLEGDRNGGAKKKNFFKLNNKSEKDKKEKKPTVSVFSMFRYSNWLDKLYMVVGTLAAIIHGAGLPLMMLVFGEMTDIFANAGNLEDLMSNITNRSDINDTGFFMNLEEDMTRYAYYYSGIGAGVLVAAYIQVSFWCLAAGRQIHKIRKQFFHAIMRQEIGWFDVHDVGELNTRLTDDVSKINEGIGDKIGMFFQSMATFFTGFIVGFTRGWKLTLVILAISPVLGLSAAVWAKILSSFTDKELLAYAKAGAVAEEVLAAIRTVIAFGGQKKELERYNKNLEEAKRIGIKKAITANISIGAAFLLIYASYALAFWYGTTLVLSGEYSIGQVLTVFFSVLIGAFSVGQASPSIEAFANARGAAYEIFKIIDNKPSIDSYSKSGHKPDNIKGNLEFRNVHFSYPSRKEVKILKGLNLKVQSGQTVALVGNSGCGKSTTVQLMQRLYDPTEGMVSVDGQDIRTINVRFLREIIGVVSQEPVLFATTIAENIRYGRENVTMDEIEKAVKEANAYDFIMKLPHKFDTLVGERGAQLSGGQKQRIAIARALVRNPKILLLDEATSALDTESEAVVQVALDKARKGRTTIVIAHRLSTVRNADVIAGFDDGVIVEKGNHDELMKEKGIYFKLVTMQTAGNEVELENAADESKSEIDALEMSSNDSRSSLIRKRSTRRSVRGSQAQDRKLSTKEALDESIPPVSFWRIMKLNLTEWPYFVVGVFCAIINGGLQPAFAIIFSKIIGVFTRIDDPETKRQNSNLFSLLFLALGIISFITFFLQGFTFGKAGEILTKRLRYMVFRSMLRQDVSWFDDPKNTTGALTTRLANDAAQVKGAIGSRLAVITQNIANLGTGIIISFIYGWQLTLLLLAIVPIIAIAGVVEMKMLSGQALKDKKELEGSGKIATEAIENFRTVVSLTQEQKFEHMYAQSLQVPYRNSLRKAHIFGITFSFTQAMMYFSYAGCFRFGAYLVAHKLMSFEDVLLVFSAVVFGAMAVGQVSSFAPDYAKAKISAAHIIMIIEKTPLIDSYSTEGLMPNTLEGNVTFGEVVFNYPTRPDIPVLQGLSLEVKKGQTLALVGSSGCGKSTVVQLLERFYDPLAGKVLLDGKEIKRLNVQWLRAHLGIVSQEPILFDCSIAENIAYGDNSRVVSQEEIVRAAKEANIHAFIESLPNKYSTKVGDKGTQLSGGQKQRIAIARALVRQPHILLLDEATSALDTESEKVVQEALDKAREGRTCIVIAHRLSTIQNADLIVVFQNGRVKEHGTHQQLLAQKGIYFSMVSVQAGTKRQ

Compound | Activity [1] | Activity [2] | Activity [4] | Activity [5] | Activity [6] | Activity [7] | Activity [8] | Activity [9] | Activity (A549/CDDP [10]) | Activity (A549/CDDP [11]) | Activity (MCF7/ADM [12]) | Activity (MCF7/ADM [13]) | Activity (MCF7/ADM [14]) | Activity (MCF7/ADM [15]) | Activity (MCF7/ADM [16]) | Activity (MCF7/ADM [17]) | Activity (A549/CDDP [18]) | Activity (MCF7/ADM [19]) | inhibition (INH) [20] | inhibition (INH) [21] | further results
Cc1cc(C(C)Nc2ccccc2C(=O)NCCOCCOCCC(=O)N[C@H](C(=O)N2C[C@H](O)C[C@H]2C(=O)NCc2ccc(-c3scnc3C)cc2)C(C)(C)C)c2nc(N3CCOCC3)cc(=O)n2c1 (some centres undefined) | Dose-dependent-effect | Time-dependent-effect | Active | Active | Active | Time-dependent-effect | Active | inactive | Active | Active | Active | Active | Active | Active | Active | Active | Active | Active | Active | Active | Activity ([3]; dose 0.04-50 µM): Dose-dependent-effect; Activity (A549/CDDP [22]): Active; Activity (MCF7/ADM [23]): Active; Activity (MCF7/ADM [24]): Active; Activity (MCF7/ADM [25]): Active; Activity (MCF7/ADM [26]): Active; Activity (MCF7/ADM [27]): Active; Activity (MCF7/ADM [28]): Active; Activity (MCF7/ADM [29]): inactive; Activity (MCF7/ADM [30]): Active; Activity [31]: Non-toxic; Activity [32]: Non-toxic; Activity [33]: Non-toxic; Activity [34]: Non-toxic
Cc1cc(C(C)Nc2ccccc2C(=O)NCCCCCCC(=O)N[C@H](C(=O)N2C[C@H](O)C[C@H]2C(=O)NCc2ccc(-c3scnc3C)cc2)C(C)(C)C)c2nc(N3CCOCC3)cc(=O)n2c1 (some centres undefined) | Dose-dependent-effect | Time-dependent-effect | Active | Active | Active | Time-dependent-effect | Active | inactive | Active | Active | Active | Active | Active | Active | Active | Active | Active | Active | Active | Active | DC50 [1]: > 30000 nM; DC50 [3]: 2190 nM; Activity (A549/CDDP [22]): Active; Activity (MCF7/ADM [23]): Active; Activity (MCF7/ADM [24]): Active; Activity (MCF7/ADM [25]): Active; Activity (MCF7/ADM [26]): Active; Activity (MCF7/ADM [27]): Active; Activity (MCF7/ADM [28]): Active; Activity (MCF7/ADM [29]): inactive; Activity (MCF7/ADM [30]): Active; Activity [31]: Non-toxic; Activity [32]: Non-toxic; Activity [33]: Non-toxic; Activity [34]: Non-toxic

From ChEMBL document CHEMBL6134905, “Double Swords in One: Novel Selective PI3K/110β PROTAC Degraders for the Treatment of Multidrug-Resistant Cancer by Activating ERS and Inhibiting P-gp” (J Med Chem, 2025)
